# How the values were obtained:
# α-glucosidase [1] = assay: In vitro α-glucosidase inhibition assay; assay type: biochemical, yeast; details: for folds more active than acarbose against α-glucosidase: versus acarbose; for anti-α-glucosidase activity in words: in comparison to acarbose or compound 14b
# α-glucosidase [2] = assay: Kinetic study; assay type: biochemical, yeast; details: Lineweaver–Burk plots
smiles,measurement,setting,value
"O=C(Cn1cc(CNC(=O)c2cc3c([nH]c4ccccc43)c(-c3ccc(Cl)cc3)n2)nn1)Nc1ccccc1F [14 m, 1-(4-chlorophenyl)-N-((1-(2-((2-fluorophenyl)amino)-2-oxoethyl)-1 H-1,2,3-triazol-4-yl)methyl)-9 H-pyrido[3,4-b]indole-3-carboxamide]",folds more active than acarbose against α-glucosidase,α-glucosidase [1],around 5 folds
"O=C(Cn1cc(CNC(=O)c2cc3c([nH]c4ccccc43)c(-c3ccc(Cl)cc3)n2)nn1)Nc1cccc(Cl)c1 [Compound 14n, 1-(4-chlorophenyl)-N-((1-(2-((3-chlorophenyl)amino)-2-oxoethyl)-1 H-1,2,3-triazol-4-yl)methyl)-9 H-pyrido[3,4-b]indole-3-carboxamide]",anti-α-glucosidase activity in words,α-glucosidase [1],good
"Cc1ccccc1NC(=O)Cn1cc(CNC(=O)c2cc3c([nH]c4ccccc43)c(-c3ccc(Cl)cc3)n2)nn1 [Compound 14k, 1-(4-chlorophenyl)-N-((1-(2-oxo-2-(o-tolylamino)ethyl)-1 H-1,2,3-triazol-4-yl)methyl)-9 H-pyrido[3,4-b]indole-3-carboxamide]",inhibitory activity diminished relative to compound 14 L,α-glucosidase [1]; versus compound 14 L,3 folds
"Cc1cc([N+](=O)[O-])ccc1NC(=O)Cn1cc(CNC(=O)c2cc3c([nH]c4ccccc43)c(-c3ccccc3)n2)nn1 [Compound 14c, N-((1-(2-((2-methyl-4-nitrophenyl)amino)-2-oxoethyl)-1 H-1,2,3-triazol-4-yl)methyl)-1-phenyl-9 H-pyrido[3,4-b]indole-3-carboxamide]",decrease of anti-α-glucosidase activity relative to compound 14b,α-glucosidase [1]; versus compound 14b,10 folds
"COc1ccc(NC(=O)Cn2cc(CNC(=O)c3cc4c([nH]c5ccccc54)c(-c4ccccc4)n3)nn2)c([N+](=O)[O-])c1 [Compound 14e, N-((1-(2-((4-methoxy-2-nitrophenyl)amino)-2-oxoethyl)-1 H-1,2,3-triazol-4-yl)methyl)-1-phenyl-9 H-pyrido[3,4-b]indole-3-carboxamide]",anti-α-glucosidase activity in words,α-glucosidase [1],moderate
"COc1ccc(-c2nc(C(=O)NCc3cn(CC(=O)Nc4cccc(Cl)c4)nn3)cc3c2[nH]c2ccccc23)cc1 [Compound 14i, N-((1-(2-((3-chlorophenyl)amino)-2-oxoethyl)-1 H-1,2,3-triazol-4-yl)methyl)-1-(4-methoxyphenyl)-9 H-pyrido[3,4-b]indole-3-carboxamide]",anti-α-glucosidase activity in words,α-glucosidase [1],significant inhibitor
"O=C(Cn1cc(CNC(=O)c2cc3c([nH]c4ccccc43)c(-c3ccc(Cl)cc3)n2)nn1)Nc1ccccc1 [Compound 14j, 1-(4-chlorophenyl)-N-((1-(2-oxo-2-(phenylamino)ethyl)-1 H-1,2,3-triazol-4-yl)methyl)-9 H-pyrido[3,4-b]indole-3-carboxamide]",folds more active than acarbose against α-glucosidase,α-glucosidase [1],around 5 folds
"Cc1ccccc1NC(=O)Cn1cc(CNC(=O)c2cc3c([nH]c4ccccc43)c(-c3ccccc3)n2)nn1 [Compound 14b, N-((1-(2-oxo-2-(o-tolylamino)ethyl)-1 H-1,2,3-triazol-4-yl)methyl)-1-phenyl-9 H-pyrido[3,4-b]indole-3-carboxamide]",effect of increasing inhibitor concentration on Km and Vmax,α-glucosidase [2],decrease in Km and Vmax
same,type of α-glucosidase inhibition,α-glucosidase [2],uncompetitive
same,anti-α-glucosidase activity in words,α-glucosidase [1],significant
"Cc1cc([N+](=O)[O-])ccc1NC(=O)Cn1cc(CNC(=O)c2cc3c([nH]c4ccccc43)c(-c3ccc(Cl)cc3)n2)nn1 [14 L, 1-(4-chlorophenyl)-N-((1-(2-((2-methyl-4-nitrophenyl)amino)-2-oxoethyl)-1 H-1,2,3-triazol-4-yl)methyl)-9 H-pyrido[3,4-b]indole-3-carboxamide]",anti-α-glucosidase activity in words,α-glucosidase [1],good

# Reference: publication PMC12092823 (Scientific Reports, 2025)
